Our source for the GI50 and TGI values is PubChem BioAssay (NCI).

Test systems include MALME-3M melanoma; RPMI-8226 leukemia; HOP-92 NSCLC; SK-MEL-28 melanoma; LOX IMVI melanoma; OVCAR-5 ovarian; SF-268 CNS; TK-10 renal; NCI-H226 lung; SK-MEL-2 melanoma.
Assay in all cases: NCI anticancer screen, dose series, 48 h

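Results reflect a 48-hour exposure of cells in 96-well plates to compound at five concentrations. Here, GI50 denotes the concentration required for 50% inhibition of growth. TGI: total growth inhibition.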

For the compound `O=C(c1nc2ccccc2[nH]1)C1C(c2cccc([N+](=O)[O-])c2)C2CC3CCCCC3N2[C@@]12C(=O)Nc1cc(Cl)ccc12` (some centres undefined), the GI50 is 1.42 µM with MALME-3M melanoma; 1.71 µM in the assay on RPMI-8226 leukemia; 1.37 µM in the assay on HOP-92 NSCLC; 1.81 µM in the assay on SK-MEL-28 melanoma; 1.55 µM with LOX IMVI melanoma; 1.48 µM in the assay with OVCAR-5 ovarian. Besides, the GI50 was 2.11 µM with SF-268 CNS, 2.12 µM in the assay with TK-10 renal and 1.59 µM in the assay with NCI-H226 lung. Besides, the TGI came out at 2.96 µM with MALME-3M melanoma; 5.6 µM with RPMI-8226 leukemia; 3.64 µM with HOP-92 NSCLC; 3.7 µM with SK-MEL-28 melanoma; 2.96 µM in the assay with LOX IMVI melanoma; 3.11 µM in the assay on OVCAR-5 ovarian. The TGI with SF-268 CNS was determined as 5.43 µM; in the assay on TK-10 renal it was 4.91 µM; in the assay on NCI-H226 lung, 3.48 µM.
`CCOC(=O)CCC(NC(=O)c1ccc(Nc2nc3cc(N)cc(N)c3nc2-c2ccccc2)cc1)C(=O)OCC` (centres undefined): the GI50 in the assay with MALME-3M melanoma was 8.1 µM; in the assay with RPMI-8226 leukemia, 6.43 µM; in the assay on HOP-92 NSCLC, 10.8 µM; with SK-MEL-28 melanoma, 5.76 µM; in the assay on LOX IMVI melanoma, 25.4 µM; in the assay on OVCAR-5 ovarian, 57.1 µM. Besides, the GI50 is 16.5 µM with SK-MEL-2 melanoma, 34.2 µM in the assay on SF-268 CNS, above 57.4 µM in the assay on TK-10 renal and above 51.6 µM with NCI-H226 lung. Besides, the TGI with MALME-3M melanoma was 15.8 µM; with RPMI-8226 leukemia it was above 59.3 µM; in the assay on HOP-92 NSCLC it was 29.7 µM; with SK-MEL-28 melanoma it was 13.3 µM; with LOX IMVI melanoma it was above 100 µM; in the assay with OVCAR-5 ovarian, above 93.2 µM. The TGI in the assay on SK-MEL-2 melanoma was above 86 µM; with SF-268 CNS, above 100 µM; with TK-10 renal, above 87.3 µM; with NCI-H226 lung it was above 74.1 µM.
As for `O=C(Nc1ccc(Oc2cccc(Cl)c2)c(Cl)c1)c1cccnc1`, the GI50 was 3.16 µM in the assay with MALME-3M melanoma; 2 µM in the assay with RPMI-8226 leukemia; 2.73 µM in the assay with HOP-92 NSCLC; 7.2 µM in the assay on SK-MEL-28 melanoma; 2.9 µM in the assay on LOX IMVI melanoma; 5.5 µM in the assay on OVCAR-5 ovarian. Further, the GI50 was 2.11 µM with SK-MEL-2 melanoma, 3.71 µM in the assay with SF-268 CNS, 3.16 µM in the assay on TK-10 renal and 2.16 µM in the assay with NCI-H226 lung. Also, the TGI was 32.8 µM in the assay on MALME-3M melanoma; above 50 µM with RPMI-8226 leukemia; 22.1 µM with HOP-92 NSCLC; above 50 µM with SK-MEL-28 melanoma; 13 µM with LOX IMVI melanoma; above 50 µM in the assay with OVCAR-5 ovarian. The TGI stood at 20 µM in the assay on SK-MEL-2 melanoma, 46.6 µM with SF-268 CNS, 40.1 µM in the assay on TK-10 renal and 32 µM in the assay with NCI-H226 lung.
Take `O=C1NC(=Nc2ccccc2Cl)SC1C(=O)Nc1ccc([N+](=O)[O-])cc1[N+](=O)[O-]` (centres undefined): the TGI in the assay on MALME-3M melanoma, in the assay on RPMI-8226 leukemia, in the assay with HOP-92 NSCLC, with SK-MEL-28 melanoma, in the assay on OVCAR-5 ovarian and in the assay with SK-MEL-2 melanoma was above 100 µM in each case. Besides, the TGI in the assay on SF-268 CNS, with TK-10 renal and in the assay on NCI-H226 lung was above 100 µM each time.
With `COC(=O)C1=C(c2cc(OC)c(OC)c(OC)c2)OC(c2cc(OC)c(OC)c(OC)c2)C1` (centres undefined), the TGI in the assay with MALME-3M melanoma is 72.3 µM; with RPMI-8226 leukemia, 96.6 µM; in the assay on HOP-92 NSCLC it was 36.5 µM; with SK-MEL-28 melanoma it was above 100 µM; in the assay on LOX IMVI melanoma it was 36.9 µM; in the assay on OVCAR-5 ovarian it was above 100 µM. Moreover, the TGI was above 100 µM in the assay on SF-268 CNS, 63.9 µM in the assay with TK-10 renal and 75.4 µM in the assay with NCI-H226 lung.
With `C/C(=N/OCCC(=O)O)C1CC1`, the TGI in the assay with MALME-3M melanoma, in the assay on RPMI-8226 leukemia, with HOP-92 NSCLC, in the assay on SK-MEL-28 melanoma, in the assay with LOX IMVI melanoma and in the assay with SK-MEL-2 melanoma was above 100 µM in each case. Besides, the TGI with SF-268 CNS, with TK-10 renal and in the assay on NCI-H226 lung was above 100 µM throughout.
Regarding `CCC[CH2][Sn]1([CH2]CCC)[O]N=Cc2ccccc2[O]1`, the GI50 in the assay on MALME-3M melanoma is 0.439 µM; in the assay with RPMI-8226 leukemia, 0.231 µM; in the assay on HOP-92 NSCLC, 1.22 µM; in the assay with SK-MEL-28 melanoma it was 0.58 µM; with LOX IMVI melanoma it was 0.377 µM; in the assay with OVCAR-5 ovarian it was 1.69 µM. Further, the values for the GI50 with SK-MEL-2 melanoma, in the assay with TK-10 renal and with NCI-H226 lung were 0.317 µM, 0.555 µM and 1.93 µM, respectively. The TGI is 0.978 µM with MALME-3M melanoma; 0.848 µM with RPMI-8226 leukemia; 2.49 µM in the assay with HOP-92 NSCLC; 1.87 µM in the assay on SK-MEL-28 melanoma; 1.35 µM with LOX IMVI melanoma; 3.08 µM with OVCAR-5 ovarian. Moreover, the TGI was found to be 1.07 µM with SK-MEL-2 melanoma, 1.72 µM with TK-10 renal and 3.49 µM in the assay on NCI-H226 lung.
Regarding `CC(C(=O)C(C)O[Si](c1ccccc1)(c1ccccc1)C(C)(C)C)=P(c1ccccc1)(c1ccccc1)c1ccccc1` (centres undefined), the TGI in the assay on MALME-3M melanoma came out at 12 µM; with RPMI-8226 leukemia, 6.58 µM; with HOP-92 NSCLC, 4.74 µM; with LOX IMVI melanoma, 11.1 µM; in the assay with OVCAR-5 ovarian, 24.9 µM; in the assay with SK-MEL-2 melanoma, 7.64 µM. Moreover, the values for the TGI in the assay with TK-10 renal and in the assay on NCI-H226 lung were 16.9 µM and 10.6 µM, respectively.
`O=C1CCC(=O)C(C(=O)CCC(=O)Nc2ccc(Cl)cc2)C1` (centres undefined): the TGI with MALME-3M melanoma, in the assay with RPMI-8226 leukemia, in the assay with HOP-92 NSCLC, with LOX IMVI melanoma, in the assay with OVCAR-5 ovarian and in the assay with SK-MEL-2 melanoma was above 100 µM in each case. Moreover, the TGI in the assay with SF-268 CNS, in the assay on TK-10 renal and with NCI-H226 lung was above 100 µM each time.
Consider `COc1ccc(C2C3=C(COC3=O)N(CCO)c3cc4c(cc32)CCC4)cc1OC` (centres undefined), for which the GI50 in the assay on MALME-3M melanoma is 0.291 µM; with RPMI-8226 leukemia it was 2.64 µM; in the assay on HOP-92 NSCLC, above 50 µM; in the assay with SK-MEL-28 melanoma, 0.697 µM; in the assay with LOX IMVI melanoma it was 1.53 µM; with OVCAR-5 ovarian, 3.59 µM. For the same compound, the values for the GI50 in the assay with SF-268 CNS and in the assay with NCI-H226 lung were 1.78 µM and above 10.7 µM, respectively. Moreover, the TGI in the assay with MALME-3M melanoma, with RPMI-8226 leukemia, in the assay with HOP-92 NSCLC, in the assay on SK-MEL-28 melanoma, in the assay on LOX IMVI melanoma and with OVCAR-5 ovarian was above 50 µM each time. Further, the TGI in the assay on SF-268 CNS, in the assay with TK-10 renal and with NCI-H226 lung was above 50 µM each time.
On to `CCc1cc2c(c3[nH]ccc13)[C@@H](C)C[C@H]2C`, for which the TGI in the assay with MALME-3M melanoma turned out to be 35.4 µM; with RPMI-8226 leukemia, 46 µM; with HOP-92 NSCLC, 32.6 µM; with SK-MEL-28 melanoma, 30 µM; in the assay with LOX IMVI melanoma, 25.3 µM; in the assay with TK-10 renal, 36.8 µM. This compound also returned a TGI in the assay with NCI-H226 lung of 31.8 µM.
